Values quoted from earlier work, collected in patent US11045513B2, “Association of dry extracts of Vicia faba, Uncaria rhyncophylla and liquorice root together with coenzyme Q10 for use as coadjuvant, for improving the quality of life in subjects suffering from movement disorders” (CRISTALFARMA S.R.L., priority 2018, dated 2021).

Biological target: dopamine D3 receptor (DRD3) (Homo sapiens, UniProt P35462)
Sequence (P35462 whole entry): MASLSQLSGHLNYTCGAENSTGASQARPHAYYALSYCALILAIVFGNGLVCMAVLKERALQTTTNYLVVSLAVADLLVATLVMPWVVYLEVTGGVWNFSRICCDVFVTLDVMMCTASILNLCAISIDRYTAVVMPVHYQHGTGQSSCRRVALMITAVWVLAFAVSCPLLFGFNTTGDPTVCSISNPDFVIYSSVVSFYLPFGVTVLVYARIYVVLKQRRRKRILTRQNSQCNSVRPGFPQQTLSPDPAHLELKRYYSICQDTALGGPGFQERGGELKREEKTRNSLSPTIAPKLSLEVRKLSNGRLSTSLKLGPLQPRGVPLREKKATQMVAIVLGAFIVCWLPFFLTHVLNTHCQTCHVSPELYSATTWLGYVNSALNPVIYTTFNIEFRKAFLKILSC

Structure (SMILES): CC1(C)[C@@H](O)CC[C@]2(C)[C@H]3C(=O)C=C4[C@@H]5C[C@@](C)(C(=O)O)CC[C@]5(C)CC[C@@]4(C)[C@]3(C)CC[C@@H]12 [glycyrrhetinic acid]
- binding affinity for the dopamine D3 receptor (DRD3): strong binding affinity
